Data reported in ChEMBL document CHEMBL1139665, “Synthesis, X-ray crystallographic analysis, and antitumor activity of N-(benzothiazole-2-yl)-1-(fluorophenyl)-O,O-dialkyl-alpha-aminophosphonates” (2006).

Legend:
PC-3 [1] = experiment: Antiproliferative activity against PC3 cells at 1 uM by MTT assay after 72 hrs; format: functional; conditions: Homo sapiens, PC-3, 72 h
PC-3 [2] = experiment: Antiproliferative activity against PC3 cells at 5 uM by MTT assay after 72 hrs; format: functional; conditions: Homo sapiens, PC-3, 72 h
PC-3 [3] = experiment: Antiproliferative activity against PC3 cells at 10 uM by MTT assay after 72 hrs; format: functional; conditions: Homo sapiens, PC-3, 72 h
A-375 [4] = experiment: Antiproliferative activity against A375 cells at 1 uM by MTT assay after 72 hrs; format: functional; conditions: Homo sapiens, A-375, 72 h
A-375 [5] = experiment: Antiproliferative activity against A375 cells at 5 uM by MTT assay after 72 hrs; format: functional; conditions: Homo sapiens, A-375, 72 h
A-375 [6] = experiment: Antiproliferative activity against A375 cells at 10 uM by MTT assay after 72 hrs; format: functional; conditions: Homo sapiens, A-375, 72 h
A-431 [7] = experiment: Antiproliferative activity against A431 cells at 1 uM by MTT assay after 72 hrs; format: functional; conditions: Homo sapiens, A-431, 72 h
A-431 [8] = experiment: Antiproliferative activity against A431 cells at 5 uM by MTT assay after 72 hrs; format: functional; conditions: Homo sapiens, A-431, 72 h
A-431 [9] = experiment: Antiproliferative activity against A431 cells at 10 uM by MTT assay after 72 hrs; format: functional; conditions: Homo sapiens, A-431, 72 h
[10] = Antiproliferative activity against Bcap37 cells at 1 uM by MTT assay after 72 hrs; format: functional, Homo sapiens
[11] = Antiproliferative activity against Bcap37 cells at 5 uM by MTT assay after 72 hrs; format: functional, Homo sapiens
[12] = Antiproliferative activity against Bcap37 cells at 10 uM by MTT assay after 72 hrs; format: functional, Homo sapiens

SMILES | inhibition at 1 µM (PC-3 [1]) | inhibition at 5 µM (PC-3 [2]) | inhibition at 10 µM (PC-3 [3]) | inhibition at 1 µM (A-375 [4]) | inhibition at 5 µM (A-375 [5]) | inhibition at 10 µM (A-375 [6]) | inhibition at 1 µM (A-431 [7]) | inhibition at 5 µM (A-431 [8]) | inhibition at 10 µM (A-431 [9]) | inhibition at 1 µM [10] | inhibition at 5 µM [11] | inhibition at 10 µM [12]
CCCOP(=O)(OCCC)C(Nc1nc2c(C)cccc2s1)c1ccccc1F (stereo unspecified) | 21.7% | 29.4% | 43.3% | -0.2% | 4.8% | 4.3% | 15.9% | 27.3% | 31.7% | -18.9% | 0.8% | 21.7%
COc1ccc2nc(NC(c3ccccc3F)P(=O)(OC)OC)sc2c1 (stereo unspecified) | 21.4% | 26.6% | 33.3% | 4.3% | 10.1% | 11.4% | 1.9% | 7.9% | 8.64% | 11.9% | 17.8% | 25.1%
CCOP(=O)(OCC)C(Nc1nc2c(C)cccc2s1)c1ccc(C(F)(F)F)cc1 (stereo unspecified) | 12.6% | 13.5% | 49.3% | -10.2% | 1.6% | 14.2% | 0.36% | 2.06% | 16.9% | -5.2% | 9.8% | 16.7%
CCCCOP(=O)(OCCCC)C(Nc1nc2ccc(OC)cc2s1)c1ccccc1F (stereo unspecified) | -6.6% | 5.3% | 13.2% | -6.2% | 3.5% | 17.4% | -3.7% | 5.4% | 28.8% | 23.6% | 38.2% | 44.2%
CCOP(=O)(OCC)C(Nc1nc2ccc(OC)cc2s1)c1ccc(F)cc1 (stereo unspecified) | 32.1% | 41% | 49.5% | 8% | 10.9% | 34.5% | 11.2% | 20.9% | 31.2% | 10% | 39% | 49.9%
CCCCOP(=O)(OCCCC)C(Nc1nc2c(C)cccc2s1)c1ccc(C(F)(F)F)cc1 (stereo unspecified) | 5% | 31.6% | 36% | -3.2% | 21.6% | 31.5% | 37.7% | 40.8% | 57.4% | 0.1% | 9.2% | 20.3%
CCOP(=O)(OCC)C(Nc1nc2ccc(OC)cc2s1)c1ccccc1F (stereo unspecified) | 16.8% | 22.5% | 38.9% | 7.5% | 7.9% | 15.7% | 4.5% | 12.3% | 22.1% | 20.5% | 34.5% | 49.4%
CCCOP(=O)(OCCC)C(Nc1nc2ccc(OC)cc2s1)c1ccccc1F (stereo unspecified) | 5% | 15.8% | 28.7% | 10.3% | 13.9% | 23.8% | 35.3% | 49.2% | 58.1% | 21.3% | 25.1% | 27.1%
Cc1cccc2sc(NC(c3ccc(C(F)(F)F)cc3)P(=O)(OC(C)C)OC(C)C)nc12 (stereo unspecified) | 6.3% | 15.3% | 25.9% | -1.3% | 8.6% | 9.1% | 17.3% | 20.5% | 29.5% | -0.7% | 11.2% | 22.7%
CCCCOP(=O)(OCCCC)C(Nc1nc2c(C)cccc2s1)c1ccccc1F (stereo unspecified) | 52.1% | 86% | 89.1% | 11.2% | 25.6% | 32.1% | 32.1% | 49% | 72.1% | 10% | 29% | 38.1%
CCOP(=O)(OCC)C(Nc1nc2c(C)cccc2s1)c1ccccc1F (stereo unspecified) | 3.51% | 22.9% | 41.9% | -13.9% | -6.1% | 9.2% | 17.7% | 23.3% | 35.3% | 35.8% | 42.6% | 58.9%
COc1ccc2nc(NC(c3ccccc3F)P(=O)(OC(C)C)OC(C)C)sc2c1 (stereo unspecified) | -8.5% | 2.1% | 18.5% | -4.3% | 1.7% | 2.8% | -7.4% | 7.5% | 16.7% | 39.7% | 43.2% | 50.4%
COP(=O)(OC)C(Nc1nc2c(C)cccc2s1)c1ccc(C(F)(F)F)cc1 (stereo unspecified) | 4% | 4.6% | 8.9% | 1.8% | 19.2% | 20.8% | 22.1% | 26% | 47.3% | -13.2% | -0.8% | 2.5%
